Data: patent US11028111B2, “Compound for treating metabolic diseases and preparation method and use thereof” (Xi' An Biocare Pharma Ltd., priority 2017, dated 2021)

Legend:
[1] = system: 17α-Ethinylestradiol (E2-17α) induced cholestasis in rats; test: Serum ALT, AST, ALP in E2-17α induced cholestasis rats; format: in vivo, Sprague Dawley rats; details: for Serum ALP / Serum ALT / Serum AST: E2-17α cholestasis rats after intragastric administration, x ± s; for Values of ALT, AST, and ALP (serum): E2-17α cholestasis rats, in words
Experimental: (§1) 17α-Ethinylestradiol (E2-17α) was administered by subcutaneous injection into the neck for model establishment for 7 days. Meantime, the test compounds were suspended in a 1% CMC-Na solution and administered by intragastric administration for 7 days during the E2-17α modeling.
(§2) E2-17α in propylene glycol was administered to rats for 7 days to establish the model, and different test samples in CMC-Na solution were administered by intragastric administration. On the 8th day, 1 mL of rat fasting blood sample was collected for detection of serum biochemical indicators, and E2-17α in propylene glycol was continuously administered to establish the model, and different test samples CMC-Na solution were administered by intragastric administration. After 0.5 hours of administration on the 9th day, the rats were weighed and anesthetized with 10% urethane (10 mL/kg) via intraperitoneal injection. After anesthesia, the rat was fixed on a board. A midline abdominal incision was made from the upper acetabular area, and the incision was about 2 to 3 cm. The indoor temperature should be maintained during the experiment, the body temperature of the rats was maintained and bile outflow was promoted. Handle of ophthalmic forceps was used to turn the liver up and find the duodenum and stomach junction. A suture (size 0) was placed at the junction to reserve. On the duodenum, about 2 cm away from the pylorus, a thin tube with a yellow transparent tube perpendicular to the duodenum could be found passing through the pancreas, that is, the common bile duct. At the junction of the common bile duct and the duodenum, the common bile duct was separated by an ophthalmic curved forceps, but was careful not to break the small blood vessels around the bile duct and avoided stimulating the pancreatic tissue by hand. After the separation, two sutures were place, and the suture close to the intestine end was ligated, as a traction suture, ophthalmic scissors were used to obliquely cut a small opening in the wall of the tube, a prepared pancreatic juice collection tube was inserted into the small opening. A mixture of yellow bile and pancreatic juice flowed out immediately after the insertion. The tube was ligated and fixed, and this tube was used to collect bile. After completion of the intubation, the skin was sutured. The other end of the bile duct intubation was taken out, flowing out to a fixed 0.5 mL centrifuge tube. Bile was continuously collected 8 times once every 15 minutes, until 120 minutes.
The blood sample was allowed to stand in a 37° C. water bath for 10 minutes, centrifuged at 3000 rpm (1368 g)×10 min, the serum was separated conventionally, dispensed and frozen at −20° C. for storage. The indicators to be detected in serum included ALT, AST, and ALP. The detection methods of the above indicators were all carried out in accordance with the relevant instructions of the kit.
(§3) The data were analyzed using SPSS18.0 statistics software. Measurement data were compared between the two groups using the t test. Multiple groups of means were compared using one-way analysis of variance (ANOVA) and multiple comparisons between groups. Data mean±standard error (Mean±SEM.) or mean±standard deviation (Mean±SD.).

[2] = system: 17α-Ethinylestradiol (E2-17α) induced cholestasis in rats; test: Bile discharge in 17α-ethinylestradiol (E2-17α) induced cholestasis in rats; format: in vivo, Sprague Dawley rats; details: for Bile discharge amount compared with the ursodeoxycholic acid group: 105 minutes after administration, UDCA 15 mg/kg; for Bile flow rate compared with the E2-17α group / Effect on ameliorating intrahepatic cholestasis, promoting bile excretion: E2-17α cholestasis rats; for Bile flow rate compared with the E2-17α group: P<0.05 vs E2-17α; for Effect on ameliorating intrahepatic cholestasis, promoting bile excretion: conclusion
Experimental: Preparation of 1.0% CMC-Na solution: 1 p CMC-Na powder was weighed and added to 100 mL (50° C.) of distilled water, the mixture was rapidly stirred with a stirrer for 1 hour to fully swell, thereby to obtain a 1% CMC-Na solution.
Preparation of E2-17α solution in propylene glycol: 54/0.98=56 mp of E2-17α was weighed, dissolved in […] of propane-1,2-diol, shaked by a vortexer for 1 hour, thereby to obtain a 7 mp/mL suspension of E2-17α.
as §1, §2
After completion of the intubation, the skin was sutured to prevent water evaporation of the abdominal cavity. The other end of the bile duct intubation was taken out, and the bile flowed out to a fixed 0.5 mL collection tube. Bile was continuously collected 8 times once every 15 minutes for a total of 120 minutes. Before the experiment, the collection tube was accurately weighed using an analytical balance. After the bile was collected in the experiment, the total weight of the bile and the collection tube was weighed, and the weight of the bile in the tube was calculated by subtraction and converted to a volume based on 1 g/mL.
as §3

[3] = system: rat model of cirrhotic portal hypertension (TAA); test: Serum indicators (ALT, AST, ALP, ALB, γ-GT, TBA) in TAA cirrhotic portal hypertension rats; format: in vivo; details: for Serum ALT level / Serum AST level: P<0.05
Experimental: (§4) A rat model of cirrhotic portal hypertension was established by intraperitoneal injection of TAA. Except that the blank control group was intraperitoneally injected with saline, remaining animals were intraperitoneally injected (i.p.) with 10% thioacetamide (TAA) in saline solution to establish the model. The dose was 200 mg/Kg, and the administration volume was 2 mL/Kg. All experimental animals were intraperitoneally injected with TAA or an equal volume of saline once every three days. Before each dose, the rat shaving beddings should be replaced by clean ones in advance. The body weight was measured once every two modeling administration. The body weight of the rats increased or decreased by 10% compared with the previous one, the dose of TAA increased or decreased by […] correspondingly. The administration was individualized to strictly control body weight change of each rat, which could effectively improve the success rate and uniformity of modeling.
(§5) The successfully modeled animals were randomly grouped, 12 rats per group, and 20 rats in the blank control group. Portal hypertension was induced by TAA in rats, and a portal hypertension model was established after 13 days. The test compound was administered once a day for 10 days. The specific groupings are shown as follows:
At the end of the administration, orbital blood was collected from the rats. The blood sample was placed in a 37° C. water bath for 10 minutes, centrifuged for 10 minutes at 3000 r/min (1370 g). Upper layer of the serum was taken and detected directly, or temporarily stored at −80° C., for serologic indicator measurement. After the blood samples were collected, the rats were fed with foods and water for 3 days.
1) 1.5 mL of orbital blood was collected before the experiment, of which the steps were the same as the aforesaid steps, to measure serum ALT, AST, ALP, γ-GT and TBA contents.

[4] = system: rat model of cirrhotic portal hypertension (TAA); test: Portal vein pressure in TAA-induced rat model of cirrhotic portal hypertension; format: in vivo, rats; details: i.g.
Experimental: 1) Preparation of saline solution of TAA: 10 g of thioacetamide (TAA) was weighed and dissolved in 100 mL of saline solution, and then filtered through a 0.22 μm sterile membrane filter into a sterile bottle.
2) Preparation of 0.5% CMC-Na suspension of test compound: 400 mg of Compound 1-H, Compound 1-IP, Compound 1-Cl, Compound 1-Mel or Compound 2-0 were weighed and dissolved in 100 mL of 0.5% CMC-Na solution, and shaken by a vortexer for 30 minutes, thereby to obtain 20 mg/Kg (high dose) groups. That is, CMC-Na suspension of 4 mg/mL of Compounds 1-H, 1-IP, 1-Cl, 1-Mel or 2-0. For the middle and low dose groups, drug preparation methods were the same.
as §4
The successfully modeled animals were randomly grouped, 12 rats per group, and 20 rats in the blank control group. Portal hypertension was induced by TAA in rats, and a portal hypertension model was established after 13 days. The test compound was administered once a day for 10 days. […]
Rats were fasted for 12 hours before the experiment, and were anesthetized with 10% chloral hydrate via intraperitoneal injection. […] Stable portal vein pressure was measured. […]

[5] = system: rat model of cirrhotic portal hypertension (TAA); test: Liver appearance and liver pathological sections (Masson, HE) in TAA cirrhotic portal hypertension rats; format: in vivo
Experimental: as §4, §5
2) A small piece at same part of the liver of the rat was cut and fixed in a 10% formaldehyde solution for tissue section pathology observation. An appropriate size of the liver was cut off, and the blood on the surface was washed off quickly with saline, put into a sterile EP tube, cryopreserved in liquid nitrogen for subsequent experiments.

[6] = all administration groups, P<0.05, P<0.01

Compound | Serum ALP [1] | Serum ALT [1] | Serum AST [1] | Values of ALT, AST, and ALP (serum) [1] | Bile discharge amount compared with the ursodeoxycholic acid group [2] | Bile flow rate compared with the E2-17α group [2] | Effect on ameliorating intrahepatic cholestasis, promoting bile excretion [2] | also measured
CC[C@@H]1C2C[C@H](O)CC[C@]2(C)C2CC[C@@]3(C)C(CC[C@@H]3[C@H](C)CCOP3(=O)OCC[C@@H](c4ccnc(Cl)c4)O3)C2[C@@H]1O (some centres unmarked) [Compound 1-Cl] | 226.65 ± 12.38 U/L | 77.36 ± 11.42 U/L | 230.89 ± 12.38 U/L | lower | significantly higher | significantly increased | significant effect | 
CC[C@@H]1C2C[C@H](O)CC[C@]2(C)C2CC[C@@]3(C)C(CC[C@@H]3[C@H](C)CCO[P@@]3(=O)OCC[C@@H](c4ccncc4)O3)C2[C@@H]1O (some centres unmarked) [Compound 1-H] | 218.64 ± 18.94 U/L | 72.36 ± 14.74 U/L | 228.82 ± 17.74 U/L | lower | significantly higher | significantly increased | significant effect | Serum ALT level ([3]; 5 mg/Kg group): decreased; Serum AST level ([3]; 5 mg/Kg group): decreased; Serum ALT level ([3]; 10 mg/Kg group): decreased; Serum AST level ([3]; 10 mg/Kg group): decreased; Serum ALT level ([3]; 20 mg/Kg group): decreased; Serum AST level ([3]; 20 mg/Kg group): decreased; Serum TBA level ([3]; all administration groups, P<0.01): decreased; Serum ALP level (FIG. 10 (C)) [3, 6]: decreased; Serum γ-GT level [3, 6]: decreased; Mean percentage change of portal vein pressure (vs mean of TAA group) ([4]; TAA + 5 mg/Kg): > 10%; Mean percentage change of portal vein pressure (vs mean of TAA group) ([4]; TAA + 10 mg/Kg): > 10%; Mean percentage change of portal vein pressure (vs mean of TAA group) ([4]; TAA + 20 mg/Kg): > 10%; Appearance of liver and spleen (liver cirrhosis nodules) compared with TAA group ([5]; TAA + 5 mg/Kg): milder; Liver pathological sections (Masson, HE): liver fibrosis ([5]; TAA + 5 mg/Kg): symptoms of liver fibrosis were ameliorated; Effect on hyperplasia of liver fibrous tissue and pseudolobule formation (pathological indicators) ([5]; TAA rats, all dose groups): certain improvement effects
CC(C)[C@@H]1C2C[C@H](O)CC[C@]2(C)C2CC[C@@]3(C)C(CC[C@@H]3[C@H](C)CCOP3(=O)OCC[C@@H](c4ccncc4)O3)C2[C@@H]1O (some centres unmarked) [Compound 1-IP] | 230.92 ± 14.00 U/L | 87.42 ± 11.72 U/L | 258.83 ± 10.82 U/L | lower |  | significantly increased | significant effect | 
CC[C@@H]1C2C[C@H](O)CC[C@]2(C)C2CC[C@@]3(C)C(CC[C@@H]3[C@H](C)CCOP3(=O)OC(C)C[C@@H](c4ccncc4)O3)C2[C@@H]1O (some centres unmarked) [Compound 1-Me1] | 235.64 ± 16.26 U/L | 80.64 ± 13.22 U/L | 252.18 ± 16.59 U/L | lower |  | significantly increased | significant effect | 
CC[C@@H]1C2C[C@H](O)CC[C@]2(C)C2CC[C@@]3(C)C(CC[C@@H]3[C@H](C)CCO[P@](=O)(N[C@@H](C)C(=O)COC(C)C)Oc3ccccc3)C2[C@@H]1O (some centres unmarked) [Compound 2-0] | 220.35 ± 12.92 U/L | 78.64 ± 10.65 U/L | 236.59 ± 13.06 U/L | lower |  | significantly increased | significant effect | 
C[C@H](CCC(=O)O)[C@H]1CC[C@H]2[C@@H]3[C@@H](O)C[C@@H]4C[C@H](O)CC[C@]4(C)[C@H]3CC[C@]12C [UDCA, ursodeoxycholic acid, reference compound] | 242.18 ± 12.10 U/L | 85.55 ± 13.80 U/L | 263.36 ± 15.35 U/L |  |  |  |  | 
